According to patent EP0185130A1, “5-Alkoxy-2,4,6-triodo or tribromo-isophthalic-acid derivatives, process for their preparation and X-ray contrast agents containing them” (BRACCO INDUSTRIA CHIMICA Società per Azioni, priority 1984, dated 1986):
Values after ≈ are worked out from the molar mass of the structure shown. Read-outs that look alike come from different tables or passages of the source.

Test: Water solubility
Assay type: physicochemical
Settings: for solubility: water, read-out: Wasserlöslichkeit
[1] = result in words, no temperature stated

With `CN(C[C@H](O)[C@H](O)CO)C(=O)COc1c(I)c(C(=O)NC(CO)CO)c(I)c(C(=O)NC(CO)CO)c1I` [Beispiel 21, 5-(N-Methyl-N-2,3,4-trihydroxybutyl)aminocarbonylmethoxy-2,4,6-trijod-isophthalsäure-bis(1,3-dihydroxyisopropylamid)] the solubility (bei 20 °C) was greater than 1000 mg/mL.

With `O=C(NCC(O)CO)c1c(I)c(OCCOCCOCCOc2c(I)c(C(=O)NCC(O)CO)c(I)c(C(=O)NCC(O)CO)c2I)c(I)c(C(=O)NCC(O)CO)c1I` (centres unmarked) [Beispiel 44, 1,8-Bis-(3,5-bis(2,3-dihydroxypropylaminocarbonyl)-2,4,6-trijod-phenoxy)-3,6-dioxan] the Wasserlöslichkeit [1] was “Wenig löslich in Wasser”.

Work on `COC(=O)[C@@H](C)Oc1c(I)c(C(=O)NC(CO)CO)c(I)c(C(=O)NC(CO)CO)c1I` [R(+)-5(1(Methoxycarbonyl)ethoxy-IPSA] yielded a solubility (bei 25 °C) of roughly 800 mg/mL (≈ 1010 mM).

In the case of `CC(Oc1c(I)c(C(=O)NC(CO)CO)c(I)c(C(=O)NC(CO)CO)c1I)C(=O)N(C)C[C@H](O)[C@@H](O)[C@H](O)[C@H](O)CO` (some centres unmarked) [Beispiel 28 R,S], the solubility (bei 25 °C) is reported as greater than 1000 mg/mL.

For `O=C(COc1c(I)c(C(=O)NCC(O)CO)c(I)c(C(=O)NCC(O)CO)c1I)NCC(O)CO` (centres unmarked) [Beispiel 32, 5-(2,3-Dihydroxypropylaminocarbonylmethoxy)-2,4,6-trijodisophthalsäure-bis(2,3-dihydroxypropylamid)], the solubility (bei 20 °C) was 10 mg/mL (≈ 11.9 mM) and the solubility (bei Siedetemperatur) was 100 mg/mL (≈ 119 mM).

In the case of `CN(C[C@@H](O)[C@H](O)[C@H](O)CO)C(=O)COc1c(I)c(C(=O)NC(CO)CO)c(I)c(C(=O)NC(CO)CO)c1I` [Beispiel 25, 5-(N-Methyl-N-2,3,4,5-tetrahydroxypentyl)aminocarbonylmethoxy-2,4,6-trijodisophthalsäure-bis(1,3-dihydroxyisopropylamid)], the solubility (no temperature stated) is reported as greater than 1000 mg/mL.

Work on `C[C@@H](Oc1c(I)c(C(=O)NC(CO)CO)c(I)c(C(=O)NC(CO)CO)c1I)C(=O)N(CCO)CC(O)CO` (some centres unmarked) [Beispiel 24, R-5(1((N-2-Hydroxyethyl-N-2,3-dihydroxypropyl)aminocarbonyl)ethoxy)-2,4,6-trijodisophthalsäure-bis(1,3-dihydroxyisopropylamid)] yielded a solubility (no temperature stated) greater than 1000 mg/mL.

With `CCOCCOCCOc1c(I)c(C(=O)N(CCO)CC(O)CO)c(I)c(C(=O)N(CCO)CC(O)CO)c1I` (centres unmarked) [Beispiel 41, 5-(3,6-Dioxaoctyl)oxy-2,4,6-trijodisophthalsäure-bis(N-2-hydroxyethyl-N-2,3-dihydroxypropylamid)] the solubility (bei Raumtemperatur) was greater than 1000 mg/mL.

In the case of `CN(C[C@H](O)[C@@H](O)[C@H](O)[C@H](O)CO)C(=O)COc1c(I)c(C(=O)NCC(O)CO)c(I)c(C(=O)NCC(O)CO)c1I` (some centres unmarked) [Beispiel 37, 5-(N-Methyl-N-2,3,4,5,6-pentahydroxyhexyl)aminocarbonylmethoxy-2,4,6-trijodisophthalsäure-bis(2,3-dihydroxypropylamid)], the solubility (bei 20 °C) is reported as greater than 1000 mg/mL.

`CN(C[C@H](O)[C@H](O)CO)C(=O)COc1c(I)c(C(=O)NCC(O)CO)c(I)c(C(=O)NCC(O)CO)c1I` (some centres unmarked) [Beispiel 35, 5-(N-Methyl-N-2,3,4-trihydroxybutyl)aminocarbonylmethoxy-2,4,6-trijod-isophthalsäure-bis(2,3-dihydroxypropylamid)] gave a solubility (bei 25 °C) greater than 1000 mg/mL.

With `O=C(COc1c(I)c(C(=O)NC(CO)CO)c(I)c(C(=O)NC(CO)CO)c1I)NCCNC(=O)COc1c(I)c(C(=O)NC(CO)CO)c(I)c(C(=O)NC(CO)CO)c1I` [Beispiel 46, 1,2-Bis-(3,5-bis(1,3-dihydroxyisopropylaminocarbonyl)-2,4,6-trijod-phenoxy-acetylamino)-ethan] the Wasserlöslichkeit [1] was “kaum löslich in Wasser”.

For “R(+)-5-(1(1,3-Dihydroxyisopropylaminocarbonyl)ethoxy)-2,4,6-tribromiso- phthalsäure-bis(1,3-dihydroxyisopropylamid) [Beispiel 13]”, the Wasserlöslichkeit (bei 20 °C) was 5 % (g/v) and the Wasserlöslichkeit (bei 100 °C) was 100 % (g/v).

`O=C(COc1c(Br)c(C(=O)NC(CO)CO)c(Br)c(C(=O)NC(CO)CO)c1Br)NC(CO)CO` [Beispiel 12, 5-(1,3-Dihydroxyisopropylaminocarbonyl)methoxy-2,4,6-tribromisophthal-säure-bis(1,3-dihydroxyisopropylamid)] gave a solubility (bei 20 °C) greater than 1000 mg/mL.

Compound `C[C@@H](Oc1c(I)c(C(=O)NC(CO)CO)c(I)c(C(=O)NC(CO)CO)c1I)C(=O)N(C)C[C@H](O)[C@@H](O)[C@H](O)[C@H](O)CO` [Beispiel 28 R] has a solubility (bei 25 °C) greater than 1000 mg/mL.

In the case of `CC(Oc1c(I)c(C(=O)NC(CO)CO)c(I)c(C(=O)NC(CO)CO)c1I)C(=O)N(CCO)CCO` (racemic) [Beispiel 18], the solubility (bei 25 °C) is reported as greater than 1000 mg/mL.

For `CC(CO)(CO)NC(=O)COc1c(I)c(C(=O)NC(CO)CO)c(I)c(C(=O)NC(CO)CO)c1I` [Beispiel 15, 5-(1,3-Dihydroxy-2-methylisopropylaminocarbonyl)methoxy-2,4,6-trijodiso-phthalsäure-bis(1,3-dihydroxyisopropylamid)], the solubility (bei 20 °C) was 16 mg/mL (≈ 18.8 mM) and the solubility (bei Siedetemperatur) was 1000 mg/mL (≈ 1170 mM).

With `O=C(NC(CO)CO)c1c(I)c(OCC(=O)N(CCO)CC(O)CO)c(I)c(C(=O)NC(CO)CO)c1I` (centres unmarked) [Beispiel 23, 5-(N-2-Hydroxyethyl-N-2,3-dihydroxypropyl)aminocarbonylmethoxy-2,4,6-trijodisophthalsäure-bis(1,3-dihydroxyisopropylamid)] the solubility (no temperature stated) was greater than 1000 mg/mL.

`O=C(NC(CO)CO)c1c(I)c(OCC(=O)N(CCO)CCO)c(I)c(C(=O)NC(CO)CO)c1I` [Beispiel 17] gave a solubility (bei 25 °C) greater than 1000 mg/mL.

Work on `CN(C[C@H](O)[C@@H](O)[C@H](O)[C@H](O)CO)C(=O)COc1c(Br)c(C(=O)NCC(O)CO)c(Br)c(C(=O)NCC(O)CO)c1Br` (some centres unmarked) [Beispiel 38, 5-(N-Methyl-N-2,3,4,5,6-pentahydroxyhexyl)aminocarbonylmethoxy-2,4,6-tribromisophthalsäure-bis(2,3-dihydroxypropylamid)] yielded a solubility (bei 20 °C) greater than 1000 mg/mL.

`CN(C[C@H](O)[C@@H](O)[C@@H](O)CO)C(=O)COc1c(I)c(C(=O)NCC(O)CO)c(I)c(C(=O)NCC(O)CO)c1I` (some centres unmarked) [Beispiel 36, 5-(N-Methyl-N-2,3,4,5-tetrahydroxypentyl)aminocarbonylmethoxy-2,4,6-trijodisophthalsäure-bis(2,3-dihydroxypropylamid)] showed a solubility (bei 25 °C) greater than 1000 mg/mL.

`CC(Oc1c(I)c(C(=O)NC(CO)CO)c(I)c(C(=O)NC(CO)CO)c1I)C(=O)N(C)CC(O)CO` (centres unmarked) [Beispiel 20 R,S] showed a solubility (bei 20 °C) greater than 1000 mg/mL.

Work on `C[C@@H](Oc1c(I)c(C(=O)NC(CO)CO)c(I)c(C(=O)NC(CO)CO)c1I)C(=O)N(C)C[C@H](O)[C@@H](O)[C@@H](O)CO` [Beispiel 26, R-5(1((N-Methyl-N-2,3,4,5-tetrahydroxypentyl)aminocarbonyl)ethoxy)-2,4,6-trijodisophthalsäure-bis(1,3-dihydroxyisopropylamid)] yielded a solubility (bei 25 °C) greater than 1000 mg/mL.

For `O=C(NCC(O)CO)c1c(I)c(OCCOCCOCCOCCOCCOc2c(I)c(C(=O)NCC(O)CO)c(I)c(C(=O)NC(CO)CO)c2I)c(I)c(C(=O)NC(CO)CO)c1I` (centres unmarked) [Beispiel 45, 1,14-Bis-(3-(1,3-dihydroxyisopropylaminocarbonyl)-5-(2,3-dihydroxy-propylaminocarbonyl)-2,4,6-trijodphenoxy)-3,6,9,12-tetraoxatetradecan], the Wasserlöslichkeit [1] was “gut wasserlöslich”.

In the case of `CC(Oc1c(I)c(C(=O)NC(CO)CO)c(I)c(C(=O)NC(CO)CO)c1I)C(=O)N(C)CC(O)C(O)CO` (centres unmarked) [Beispiel 22, (5-(1(N-Methyl-N-2,3,4-trihydroxybutyl)aminocarbonyl)ethoxy)-2,4,6-trijodisophthalsäure-bis(1,3-dihydroxyisopropylamid)], the Wasserlöslichkeit (bei 25 °C) is reported as > 100 % (g/v).

With `CN(CC(O)CO)C(=O)COc1c(I)c(C(=O)NC(C)(CO)CO)c(I)c(C(=O)NC(C)(CO)CO)c1I` (centres unmarked) [Beispiel 39, 5(N-Methyl-N-2,3-dihydroxypropyl)aminocarbonylmethoxy-2,4,6-trijod-isophthalsäure-bis(1,3-dihydroxy-2-methylisopropylamid)] the solubility (bei 20 °C) was no less than 1000 mg/mL.

`CC(CO)(CO)NC(=O)COc1c(I)c(C(=O)NCC(O)CO)c(I)c(C(=O)NCC(O)CO)c1I` (centres unmarked) [Beispiel 33, 5-(1,3-Dihydroxy-2-methylisopropylaminocarbonylmethoxy)-2,4,6-trijod-isophthalsäure-bis(2,3-dihydroxypropylamid)] gave a solubility (bei 25 °C) greater than 1000 mg/mL.

`CCOCCOCCOc1c(I)c(C(=O)NC(CO)CO)c(I)c(C(=O)NC(CO)CO)c1I` [Beispiel 1, 5-(3,6-Dioxaoctyl)oxy-2,4,6-trijodisophthalsäure-bis(1,3-dihydroxyiso-propylamid)] showed a solubility (bei 20 °C) of 60 mg/mL (≈ 73 mM) and a solubility (bei Siedetemperatur) of 1000 mg/mL (≈ 1220 mM).

For `CCOCCOCCOc1c(I)c(C(=O)NCC(O)CO)c(I)c(C(=O)NC(CO)CO)c1I` (centres unmarked) [Beispiel 42, 1-(3-(1,3-Dihydroxyisopropylaminocarbonyl)-5-(2,3-dihydroxypropylamino-carbonyl)-2,4,6-trijod-phenoxy)-3,6-dioxaoctan], the solubility (no temperature stated) was greater than 500 mg/mL.

For `O=C(NC(CO)CO)c1c(I)c(OCCCOCCOCCOCCOCCCO)c(I)c(C(=O)NC(CO)CO)c1I` [Beispiel 6, 5-(16-Hydroxy-4,7,10,13-tetraoxahexadecyl)oxy-2,4,6-trijod-isophthalsäure-bis(1,3-dihydroxyisopropylamid)], the solubility (bei 20 °C) was greater than 1000 mg/mL.

In the case of `COC(=O)[C@@H](C)Oc1c(Br)c(C(=O)NC(CO)CO)c(Br)c(C(=O)NC(CO)CO)c1Br` [R(+)-5(1(Methoxycarbonyl)ethoxy)-2,4,6-tribromisophthalsäure-bis(1,3-di-hydroxyisopropylamid)], the Wasserlöslichkeit [1] is reported as “sehr gut wasserlösliche”.

Work on `C[C@@H](Oc1c(I)c(C(=O)NC(CO)CO)c(I)c(C(=O)NC(CO)CO)c1I)C(=O)N(C)CC(O)CO` (some centres unmarked) [Beispiel 20 R] yielded a solubility (bei 20 °C) greater than 1000 mg/mL.

With `O=C(COc1c(I)c(C(=O)NC(CO)CO)c(I)c(C(=O)NC(CO)CO)c1I)NCC(O)CO` (centres unmarked) [Beispiel 49, 5-(2,3-Dihydroxypropylaminocarbonyl)methoxy-2,4,6-trijodisophthalsäure-bis(1,3-dihydroxyisopropylamid)] the Wasserlöslichkeit [1] was “leicht löslich in Wasser”.

Work on `O=C(COc1c(I)c(C(=O)NCC(O)CO)c(I)c(C(=O)NCC(O)CO)c1I)NCCO` (centres unmarked) [Beispiel 31, 5-(2-Hydroxyethylaminocarbonylmethoxy)-2,4,6-trijodisophthalsäure-bis(2,3-dihydroxypropylamid)] yielded a solubility (bei 25 °C) of 12 mg/mL (≈ 14.9 mM) and a solubility (bei Siedetemperatur) of 130 mg/mL (≈ 161 mM).
